Assays:
[1] = biological target: Carbonic anhydrase 12 (Homo sapiens) (UniProt O43570); test: Activation of human recombinant CA12 catalytic domain by stopped-flow CO2 hydration method
[2] = biological target: Carbonic anhydrase 9 (Homo sapiens) (UniProt Q16790); test: Activation of human recombinant CA9 catalytic domain by stopped-flow CO2 hydration method

Carbonic anhydrase 12 (Homo sapiens), sequence (O43570 whole entry, the tested form may be a part): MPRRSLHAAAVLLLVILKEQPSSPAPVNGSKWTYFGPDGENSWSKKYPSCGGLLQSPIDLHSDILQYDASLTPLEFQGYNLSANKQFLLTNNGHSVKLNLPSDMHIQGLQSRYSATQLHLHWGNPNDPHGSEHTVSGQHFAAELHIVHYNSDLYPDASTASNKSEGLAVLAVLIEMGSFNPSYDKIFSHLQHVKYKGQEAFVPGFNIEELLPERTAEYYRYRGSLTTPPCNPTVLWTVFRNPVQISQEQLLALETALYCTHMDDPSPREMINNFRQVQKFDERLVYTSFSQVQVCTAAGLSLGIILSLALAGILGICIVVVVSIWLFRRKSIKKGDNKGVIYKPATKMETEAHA

Row | SMILES | KA [1] [µM] | KA [2] [µM]
1 | NCCc1c[nH]cn1 | 27.9 | 35.1
2 | NCCc1c[nH]c2ccc(O)cc12 | 0.3 | 33.1
3 | N[C@@H](Cc1c[nH]c2ccccc12)C(=O)O | 26 | 37.5
4 | N[C@H](Cc1ccc(O)c(O)c1)C(=O)O | 0.89 | 54.7
5 | N[C@@H](Cc1ccc(O)c(O)c1)C(=O)O | 1.67 | 51.3
6 | N[C@@H](Cc1ccc(O)cc1)C(=O)O | 25.8 | 25.3
7 | NCCc1ccccn1 | 0.69 | 0.013
8 | CNCC(O)c1ccc(O)c(O)c1 (single isomer, unassigned) | 0.41 | 0.87
9 | NCc1ccccn1 | 41.5 | 1.07
10 | NCCc1ccc(O)c(O)c1 | 0.67 | 0.92
11 | NCCN1CCNCC1 | 48.3 | 0.009
12 | N[C@H](Cc1c[nH]c2ccccc12)C(=O)O | 28.1 | 43.6
13 | N[C@@H](Cc1c[nH]cn1)C(=O)O | 37.5 | 9.71
14 | N[C@H](Cc1c[nH]cn1)C(=O)O | 24.7 | 12.5
15 | NCCN1CCOCC1 | 0.24 | 0.43
16 | Nc1ccc(C[C@H](N)C(=O)O)cc1 | 1.09 | 48.7

Source: ChEMBL document CHEMBL1142388, “Carbonic anhydrase activators: activation of the human tumor-associated isozymes IX and XII with amino acids and amines” (Bioorg Med Chem, 2008)
